This is an account of results in patent US20250195513A1, “DEGRADATION OF IRAK4 BY CONJUGATION OF IRAK4 INHIBITORS WITH E3 LIGASE LIGAND AND METHODS OF USE” (BeiGene, Ltd., priority 2022, published 2025).

Holding throughout (assay type): cell-based
Assay [1] addresses T1, IRAK4 (Homo sapiens, UniProt Q9NWZ3).
T1 construct: endogenous in cells; host or cells: Karpas299
T1 sequence (Q9NWZ3 1-460): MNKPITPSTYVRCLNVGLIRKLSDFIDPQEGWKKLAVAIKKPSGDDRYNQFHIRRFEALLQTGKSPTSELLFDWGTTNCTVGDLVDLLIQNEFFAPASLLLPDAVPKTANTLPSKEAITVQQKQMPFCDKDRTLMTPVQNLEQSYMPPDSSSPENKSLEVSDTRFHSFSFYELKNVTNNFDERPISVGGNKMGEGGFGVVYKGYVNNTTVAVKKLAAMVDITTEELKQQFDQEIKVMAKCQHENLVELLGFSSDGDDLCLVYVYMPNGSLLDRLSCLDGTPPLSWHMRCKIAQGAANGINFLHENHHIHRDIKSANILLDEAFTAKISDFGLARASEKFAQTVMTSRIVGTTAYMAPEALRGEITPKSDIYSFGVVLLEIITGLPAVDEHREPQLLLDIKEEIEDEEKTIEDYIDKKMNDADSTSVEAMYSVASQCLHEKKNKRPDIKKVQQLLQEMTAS
The assay is described as follows: IRAK4 Degradation Assay (Karpas299, HTRF/TR-FRET). Particulars: Karpas-299 cells; for Dmax: maximum percentage of degradation. The gist of the method:
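Karpas299 cells at 0.2 million per well were exposed to serially diluted compounds for 24 h or 5 h, then lysed. IRAK4 remaining in lysates was quantified by HTRF (665/620 nm) after overnight antibody incubation at room temperature. Percent degradation was fitted to a four-parameter curve to give IC50 (DC50).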

In assay [2] the target is T1, IRAK4. The assay is described as follows: IRAK4 Degradation Assay with Human Serum (Karpas299, HTRF/TR-FRET). Particulars: Karpas-299 in human serum, 24 hrs treatment; for DC50: read-out: IRAK4 degradtion with human serum assay DC50; for Dmax: read-out: IRAK4 degradtion with human serum assay Dmax (%). The method, boiled down: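 Karpas299 cells in human AB serum (0.2 million/well) treated with serial compound dilutions for 24 h. After lysis, IRAK4 quantified by HTRF (overnight antibody incubation at room temperature, 665/620 nm read). Degradation percentage fitted to four-parameter curve to give DC50.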

Assay [3] relates to TNF-α production in THP-1 cells. The assay is described as follows: TNF-α Production Assay in THP-1 Cells (LPS stimulated). The following applies: Homo sapiens, THP-1, 24 h; for Emax: maximum inhibition, read-out: TNF-α (THP-1) 24 h IMax. The method, boiled down: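 Cells (0.2 million/well) pretreated with compounds for 24 h, then stimulated with LPS at 1 μg/mL final for 24 h. TNF-α in culture supernatant quantified by TR-FRET immunoassay.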

Assay [4] has as its system IL-6 production in human PBMC. The assay is described as follows: IL-6 Production Assay in Human PBMC (LPS stimulated). Particulars: Homo sapiens, 5 h; for Emax: maximum inhibition, read-out: IL-6 (PBMC) 5 h IMax. The gist of the method:
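Thawed PBMC were rested overnight at 37 °C, seeded at 0.2 million cells/well and pretreated with compounds for 24 h. They were then stimulated with LPS at 10 ng/mL for 5 h. IL-6 in the supernatant was quantified by TR-FRET.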

Where [5] appears, read: 5 h treatment, read-out: IRAK4 in Karpas-299 (5 h) Dmax (%).
[6] abbreviates: 5 h treatment, read-out: IRAK4 in Karpas-299 (5 h) DC50.
The mark [7] stands for this setting: 24 h treatment, read-out: IRAK4 in Karpas-299 (24 h) Dmax (%).
The mark [8] stands for this setting: 24 h treatment, read-out: IRAK4 in Karpas-299 (24 h) DC50.

`COC[C@H]1CN([C@H]2CC[C@H](n3cc4cc(NC(=O)c5ccc6cc(C#N)cnn56)c(C(C)(C)O)cc4n3)CC2)CCN1C1CCN(c2cc(F)c([C@H]3CCC(=O)NC3=O)c(F)c2)CC1` [Example 317, 3-cyano-N-(2-((1R,4r)-4-((R)-4-(1-(4-((R)-2,6-dioxopiperidin-3-yl)-3,5-difluorophenyl)piperidin-4-yl)-3-(methoxymethyl)piperazin-1-yl)cyclohexyl)-6-(2-hydroxypropan-2-yl)-2H-indazol-5-yl)pyrrolo[1,2-b]pyridazine-7-carboxamide]: the Dmax in assay [1] (setting [5]) stood at 95%; in assay [1] (setting [7]), 96%; in assay [2] it was 100%. Further, the DC50 in assay [1] (setting [6]) was determined as 1.9 nM; in assay [1] (setting [8]), 0.8 nM; in assay [2] it was 25 nM. The IC50 came out at 41 nM in assay [3] and 1 nM in assay [4]. Besides, the results for the Emax in assay [3] and in assay [4] were 87% and 71%, respectively.
For the molecule `COC[C@@H]1CN([C@H]2CC[C@H](n3cc4cc(NC(=O)c5ccc6cc(C#N)cnn56)c(C(C)(C)O)cc4n3)CC2)CCN1CCc1cc(F)c([C@H]2CCC(=O)NC2=O)c(F)c1` [Example 320], the Dmax turned out to be 99% in assay [1] (setting [7]) and 98% in assay [2]. For the same molecule, the DC50 in assay [1] (setting [8]) is 1 nM; in assay [2], 4.1 nM. The results for the IC50 in assay [3] and in assay [4] were 43 nM and 9.2 nM, respectively. The Emax in assay [3] came to 85%; in assay [4], 65%.
In the case of `COC[C@H]1CN(CCc2cc(F)c([C@H]3CCC(=O)NC3=O)c(F)c2)CCN1[C@H]1CC[C@H](n2cc3cc(NC(=O)c4ccc5cc(C#N)cnn45)c(C(C)(C)O)cc3n2)CC1` [Example 321, 3-cyano-N-(2-((1R,4r)-4-((R)-4-(4-((R)-2,6-dioxopiperidin-3-yl)-3,5-difluorophenethyl)-2-(methoxymethyl)piperazin-1-yl)cyclohexyl)-6-(2-hydroxypropan-2-yl)-2H-indazol-5-yl)pyrrolo[1,2-b]pyridazine-7-carboxamide], the Dmax in assay [1] (setting [7]) worked out at 96%; in assay [2] it was 98%. Besides, the values for the DC50 in assay [1] (setting [8]) and in assay [2] were 1.4 nM and 5.5 nM, respectively. Also, the IC50 is 55 nM in assay [3] and 0.4 nM in assay [4]. The results for the Emax in assay [3] and in assay [4] were 77% and 58%, respectively.
With `COC[C@H]1CN(CC2CN(c3cc(F)c([C@H]4CCC(=O)NC4=O)c(F)c3)C2)CCN1[C@H]1CC[C@H](n2cc3cc(NC(=O)c4ccc5cc(C#N)cnn45)c(C(C)(C)O)cc3n2)CC1` [Example 322, 3-cyano-N-(2-((1R,4r)-4-((R)-4-((1-(4-((R)-2,6-dioxopiperidin-3-yl)-3,5-difluorophenyl)azetidin-3-yl)methyl)-2-(methoxymethyl)piperazin-1-yl)cyclohexyl)-6-(2-hydroxypropan-2-yl)-2H-indazol-5-yl)pyrrolo[1,2-b]pyridazine-7-carboxamide], the Dmax in assay [1] (setting [5]) amounted to 98%; in assay [1] (setting [7]) it was 97%; in assay [2], 101%. Also, the DC50 in assay [1] (setting [6]) stood at 12 nM; in assay [1] (setting [8]), 0.7 nM; in assay [2], 19 nM. For the same molecule, the 50% inhibitory concentration (IC50) in assay [3] was 42 nM; in assay [4], 9.7 nM. For the same molecule, the values for the Emax in assay [3] and in assay [4] were 94% and 81%, respectively.
With `COC[C@@H]1CN(CC2CN(c3cc(F)c([C@H]4CCC(=O)NC4=O)c(F)c3)C2)CCN1[C@H]1CC[C@H](n2cc3cc(NC(=O)c4ccc5cc(C#N)cnn45)c(C(C)(C)O)cc3n2)CC1` [Example 326, 3-cyano-N-(2-((1S,4r)-4-((S)-4-((1-(4-((R)-2,6-dioxopiperidin-3-yl)-3,5-difluorophenyl)azetidin-3-yl)methyl)-2-(methoxymethyl)piperazin-1-yl)cyclohexyl)-6-(2-hydroxypropan-2-yl)-2H-indazol-5-yl)pyrrolo[1,2-b]pyridazine-7-carboxamide], the Dmax in assay [1] (setting [5]) is 97%; in assay [1] (setting [7]), 100%; in assay [2] it was 95%. Besides, the DC50 was 1.9 nM in assay [1] (setting [6]), 0.7 nM in assay [1] (setting [8]) and 2.9 nM in assay [2]. Besides, the results for the IC50 in assay [3] and in assay [4] were 13 nM and 1.9 nM, respectively. Besides, the Emax in assay [3] was found to be 99%; in assay [4] it was 65%.
As for `CC(C)(O)c1cc2nn(C34CC(N5CCN(CC6CN(c7cc(F)c([C@H]8CCC(=O)NC8=O)c(F)c7)C6)CC5)(C3)C4)cc2cc1NC(=O)c1ccc2cc(C#N)cnn12` [Example 332, (R)-3-cyano-N-(2-(3-(4-((1-(4-(2,6-dioxopiperidin-3-yl)-3,5-difluorophenyl)azetidin-3-yl)methyl)piperazin-1-yl)bicyclo[1.1.1]pentan-1-yl)-6-(2-hydroxypropan-2-yl)-2H-indazol-5-yl)pyrrolo[1,2-b]pyridazine-7-carboxamide], the Dmax in assay [1] (setting [5]) came out at 97%; in assay [1] (setting [7]) it was 97%; in assay [2], 101%. For the same molecule, the DC50 was 1.5 nM in assay [1] (setting [6]), 0.6 nM in assay [1] (setting [8]) and 10 nM in assay [2]. For the same molecule, the IC50 in assay [3] was found to be 7.6 nM; in assay [4], 1.4 nM. The results for the Emax in assay [3] and in assay [4] were 93% and 70%, respectively.
With `CC(C)(O)c1cc2nn(C34CCC(N5CCN(C6CCN(c7cc(F)c([C@H]8CCC(=O)NC8=O)c(F)c7)CC6)CC5)(CC3)CC4)cc2cc1NC(=O)c1ccc2cc(C#N)cnn12` [Example 333, (R)-3-cyano-N-(2-(4-(4-(1-(4-(2,6-dioxopiperidin-3-yl)-3,5-difluorophenyl)piperidin-4-yl)piperazin-1-yl)bicyclo[2.2.2]octan-1-yl)-6-(2-hydroxypropan-2-yl)-2H-indazol-5-yl)pyrrolo[1,2-b]pyridazine-7-carboxamide], the Dmax in assay [1] (setting [5]) came to 98%; in assay [1] (setting [7]), 97%; in assay [2], 93%. Besides, the DC50 in assay [1] (setting [6]) came out at 3.9 nM; in assay [1] (setting [8]), 2.4 nM; in assay [2], 23 nM. For the same molecule, the IC50 was found to be 10 nM in assay [3] and 4.7 nM in assay [4]. Also, the Emax worked out at 96% in assay [3] and 62% in assay [4].
In the case of `CC(C)(O)c1cc2nn([C@H]3CC[C@H](N4CCN([C@H]5C[C@H](c6cc(F)c([C@H]7CCC(=O)NC7=O)c(F)c6)C5)CC4)CC3)cc2cc1NC(=O)c1ccc2cc(C#N)cnn12` [Example 364, 3-cyano-N-(2-((1R,4r)-4-(4-((1R,3R)-3-(4-((R)-2,6-dioxopiperidin-3-yl)-3,5-difluorophenyl)cyclobutyl)piperazin-1-yl)cyclohexyl)-6-(2-hydroxypropan-2-yl)-2H-indazol-5-yl)pyrrolo[1,2-b]pyridazine-7-carboxamide], the Dmax in assay [1] (setting [5]) was determined as 96%; in assay [1] (setting [7]), 96%; in assay [2], 99%. Besides, the DC50 was 0.8 nM in assay [1] (setting [6]), 1.3 nM in assay [1] (setting [8]) and 4.6 nM in assay [2]. Moreover, the IC50 in assay [3] was determined as 14 nM; in assay [4], 0.6 nM. Besides, the Emax in assay [3] was 98%; in assay [4], 74%.

As usually defined, the Dmax is the greatest extent of degradation seen. As usually defined, the DC50 is the concentration at which degradation of the target reaches its halfway point. What is called IC50 is the concentration that inhibits the measured activity by half. High values mean a need for much substance, low ones inhibition by little substance.
